{"source": "patent US9539301B2", "about": "“Melanotropin ligands for skin care” (THE ARIZONA BOARD OF REGENTS ON BEHALF OF THE UNIVERSITY OF …, priority 2011, dated 2017)", "key": {"[1]": {"molecular_target": "MC1R (Homo sapiens, UniProt Q01726)", "sequence (Q01726 whole entry)": "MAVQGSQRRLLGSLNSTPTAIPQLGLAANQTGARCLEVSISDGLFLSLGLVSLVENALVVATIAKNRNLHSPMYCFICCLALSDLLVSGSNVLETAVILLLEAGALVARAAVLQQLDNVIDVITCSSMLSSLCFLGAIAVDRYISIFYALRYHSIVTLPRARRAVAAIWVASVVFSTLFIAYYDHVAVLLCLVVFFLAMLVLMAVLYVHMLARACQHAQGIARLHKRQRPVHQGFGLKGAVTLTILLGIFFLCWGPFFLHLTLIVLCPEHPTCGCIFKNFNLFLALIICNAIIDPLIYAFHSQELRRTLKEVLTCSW", "assay": "Europium time-resolved fluorescence competitive binding assay (Eu-NDP-α-MSH) on HCT116/hMC1R cells", "parameters": "host or cells: HCT116", "conditions": "for 1R/4R selectivity (values determined): ratio of MC4R Ki to MC1R Ki", "protocol": "(§1) HCT116 cells overexpressing hMC1R and HEK293 cells overexpressing hMC4R[23] or hMC5R were used in all studies. […] Cells were maintained under standard conditions (37° C. and 5% CO2) and were grown in Dulbecco's modified Eagle medium (DMEM) supplemented with 10% FBS and 5% penicillin/streptomycin. For HCT116/hMC1R cells, geneticin (G418S, 0.4 mg/mL) was added to the media to ensure proper selection.\nCompetitive binding assays were performed using HCT116/hMC1R cells and HEK293/hMC4R or hMC5R as previously described, with slight modifications. […] Poly-D-Lysine Coated Plates contain a PDL polymer coating that creates a uniform positive charge at the surface of the plastic, thereby facilitating cell attachment, growth and differentiation. […] Both labeled and non-labeled ligands were diluted in binding media (DMEM, 1 mM 1,10-phenanthroline, 200 mg/L bacitracin, 0.5 mg/L leupeptin, 0.3% BSA). In the case of the triblock polymer micelle solutions, micelles were allowed to equilibrate in solution for a period of 30 min prior to cell addition. Cells were incubated with labeled and non-labeled ligands for 1 hour at 37° C. Following incubation, cells were washed three times with wash buffer (50 mM Tris-HCl, 0.2% BSA, 30 mM NaCl) and 50 µL of enhancement solution (PerkinElmer) was added to each well. Cells were incubated for an additional 30 min at 37° C. prior to reading. […] Competition curves were analyzed with GraphPad Prism software using the sigmoidal dose-response (variable slope) classical equation for nonlinear regression analysis.\nCompetitive binding assays were also performed using 4-targeted triblock polymers, triblock polymer micelles, as well as untargeted micelles as a control (FIG. 4A-C).\nEuropium binding assays were conducted as previously published.^33, 40\nTime-resolved lanthanide fluorescence competitive binding assays^33, 40 were performed in an effort to optimize ligand loading for maximal avidity. In these assays, increasing concentrations of micelles were measured for their ability to competitively displace Eu-labeled NDP-α-MSH 2. The remaining Eu was then measured using time resolved fluorescence (TRF, see Methods)."}, "[2]": {"molecular_target": "MC4R (Homo sapiens, UniProt P32245)", "sequence (P32245 whole entry)": "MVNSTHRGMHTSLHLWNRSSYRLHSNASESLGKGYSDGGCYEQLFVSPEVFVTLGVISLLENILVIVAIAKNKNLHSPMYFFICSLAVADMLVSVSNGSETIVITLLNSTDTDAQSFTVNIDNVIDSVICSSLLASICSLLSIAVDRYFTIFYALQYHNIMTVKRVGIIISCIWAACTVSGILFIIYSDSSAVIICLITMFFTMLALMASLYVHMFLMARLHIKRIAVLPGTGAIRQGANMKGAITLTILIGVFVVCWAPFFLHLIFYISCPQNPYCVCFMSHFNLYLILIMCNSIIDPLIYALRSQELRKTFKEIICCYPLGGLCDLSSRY", "assay": "Europium competitive binding assay on HEK293/hMC4R cells", "parameters": "expressed in transfected cells; host or cells: HEK293", "protocol": "as §1\nCompetitive binding assays were performed using HCT116/hMC1R cells and HEK293/hMC4R or hMC5R as previously described, with slight modifications. HCT116/hMC1R cells were plated in black PerkinElmer 96-well plates and HEK293/hMC4R and HEK293/hMC5R cells were plated on SigmaScreen Poly-D-Lysine Coated Plates (SigmaAldrich), all at a density of 10,000-30,000 cells/well. Poly-D-Lysine Coated Plates contain a PDL polymer coating that creates a uniform positive charge at the surface of the plastic, thereby facilitating cell attachment, growth and differentiation. […] Both labeled and non-labeled ligands were diluted in binding media (DMEM, 1 mM 1,10-phenanthroline, 200 mg/L bacitracin, 0.5 mg/L leupeptin, 0.3% BSA). […] Cells were incubated for an additional 30 min at 37° C. prior to reading. […] Competition curves were analyzed with GraphPad Prism software using the sigmoidal dose-response (variable slope) classical equation for nonlinear regression analysis."}, "[3]": {"molecular_target": "MC5R (Homo sapiens, UniProt P33032)", "sequence (P33032 whole entry)": "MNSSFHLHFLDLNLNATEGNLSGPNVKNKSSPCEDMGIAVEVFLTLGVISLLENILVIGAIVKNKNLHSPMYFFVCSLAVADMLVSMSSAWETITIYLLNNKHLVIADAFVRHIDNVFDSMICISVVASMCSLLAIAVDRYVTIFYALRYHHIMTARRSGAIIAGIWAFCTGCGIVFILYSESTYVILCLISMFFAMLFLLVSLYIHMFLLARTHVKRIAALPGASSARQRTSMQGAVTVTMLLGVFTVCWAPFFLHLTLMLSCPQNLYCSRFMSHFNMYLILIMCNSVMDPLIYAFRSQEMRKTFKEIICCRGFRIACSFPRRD", "assay": "Europium competitive binding assay on HEK293/hMC5R cells", "parameters": "expressed in transfected cells; host or cells: HEK293", "protocol": "HCT116 cells overexpressing hMC1R and HEK293 cells overexpressing hMC4R[23] or hMC5R were used in all studies. The parental human colorectal carcinoma cell line, HCT116 (American Type Culture Collection, CCL 247) was also used. Cells were maintained under standard conditions (37° C. and 5% CO2) and were grown in Dulbecco's modified Eagle medium (DMEM) supplemented with 10% FBS and 5% penicillin/streptomycin. For HCT116/hMC1R cells, geneticin (G418S, 0.4 mg/mL) was added to the media to ensure proper selection.\nCompetitive binding assays were performed using HCT116/hMC1R cells and HEK293/hMC4R or hMC5R as previously described, with slight modifications. HCT116/hMC1R cells were plated in black PerkinElmer 96-well plates and HEK293/hMC4R and HEK293/hMC5R cells were plated on SigmaScreen Poly-D-Lysine Coated Plates (SigmaAldrich), all at a density of 10,000-30,000 cells/well. […] Cells were incubated for an additional 30 min at 37° C. prior to reading. The plates were read on a PerkinElmer VICTOR×4 2030 multilabel reader using the standard Eu TRF measurement (340 nm excitation, […], and emission collection for […] at 615 nm). Competition curves were analyzed with GraphPad Prism software using the sigmoidal dose-response (variable slope) classical equation for nonlinear regression analysis. […]"}, "[4]": {"system": "A375/MC1R xenograft tumor", "assay": "Intravital confocal imaging of dorsal skin-fold window chamber tumor xenograft", "assay_type": "in vivo, SCID mouse", "conditions": "for tumor cell internalization of probe: 24 h after injection", "protocol": "All procedures were carried out in compliance with the Guide for the Care and Use of Laboratory Animal Resources (1996), National Research Council, and approved by the Institutional Animal Care and Use Committee, University of South Florida. A dorsal skin-fold window chamber was used to study the pharmacokinetics of imaging agent uptake immediately after i.v. injection of the probe. Starting 3 days prior to the surgery, mice were daily administered 1 ml of sterile saline subcutaneously at the planned site of the window in order to loosen connective tissue and create a receiving “pocket”. SCID mice were prepared immediately before surgery; the surgical site was shaved, and then a combination of oxygen and isoflurane was used for anesthesia (animals underwent induction with 3.5% isoflurane and were maintained at 1.5-2.0%). The window chamber method utilizes a titanium steel or plexiglass “saddle” that is sutured to the back of the mouse and holds a flap of dorsal skin vertically away from the mouse's body. A small “window” of skin (approximately 5 mm in diameter) was surgically excised from the retained skin flap of the anesthetized SCID mouse. Tumor constructs were engineered using the tumor droplet method. A375/MC1R or A375 parental melanoma cells were suspended in 2.5 mg/ml of type I collagen (BD Biosciences #354249) and 1×DMEM at a final concentration of 2.5×10^6 cells/ml. Using a 48-well non-tissue culture plate, a 15 µl drop of the tumor cell suspension was polymerized in the center of the well. After brief polymerization (10-15 minutes) at 37° C., a microvessel outer layer was added that completely surrounded the droplet. The microvessel outer layer consisted of 3 mg/ml of type I collagen, 1×DMEM and, 12,000 to 15,000 GFP expressing rat microvessel fragments/ml. After 4-6 days of culture at 37 C, the constructs were then implanted into the “window chamber” by placing them directly onto the exposed subcutaneous fascia. A glass cover was then attached to the center of the “saddle” to cover the fascia and implanted tumor cells. […]"}}, "note": "Square brackets hold non-standard residues; d marks the D form. Side chains are listed from the residue outwards. Peptide text beside a SMILES is read from it. * marks the point of attachment. Cy5 maleimide = Cy5 dye as its maleimide, reacted with a thiol compound; d2Nal = N[C@H](Cc1ccc2ccccc2c1)C(=O)O; Butanoyl(4-Ph) = O=C(CCCc1ccccc1)*; Butanoyl(4-ethynyl) = C#CCCCC(=O)*; Nle = CCCC[C@H](N)C(=O)O; Mpa = O=C(O)CCS", "data": [{"compound": "CC(=O)N[C@@H](CCc1ccccc1)C(=O)N[C@@H](Cc1cnc[nH]1)C(=O)N[C@H](Cc1ccccc1)C(=O)N[C@@H](CCCN=C(N)N)C(=O)N[C@@H](Cc1c[nH]c2ccccc12)C(N)=O", "note": "[Compound 2, Ac-Homophenylalanine-His-DPhe-Arg-Trp-NH2]", "values": [{"measurement": "Ki", "setting": "[1]; HCT116/hMC1R cells, competition with Eu-NDP-α-MSH, read-out: Ki MC1R (values determined)", "value": 1.77, "unit": "nM"}]}, {"compound": "N=C(N)NCCC[C@H](NC(=O)[C@@H](Cc1ccccc1)NC(=O)[C@H](Cc1c[nH]cn1)NC(=O)C=Cc1ccc(O)cc1)C(=O)N[C@@H](Cc1c[nH]c2ccccc12)C(N)=O", "note": "[Compound 3, 4-hydroxycinnamoyl-His-DPhe-Arg-Trp-NH2]", "values": [{"measurement": "Ki MC4R (values determined)", "setting": "[2]", "value": "no affinity"}, {"measurement": "Ki MC5R (values determined)", "setting": "[3]", "value": "no affinity"}, {"measurement": "Ki MC1R (values determined)", "setting": "[1]; HCT116/hMC1R cells, competition with Eu-NDP-α-MSH", "value": "no affinity"}]}, {"compound": "C#CCCCC(=O)NCCCC[C@H](NC(=O)CNC(=O)[C@H](Cc1c[nH]c2ccccc12)NC(=O)[C@H](CCCNC(=N)N)NC(=O)[C@@H](Cc1ccccc1)NC(=O)[C@H](Cc1c[nH]cn1)NC(=O)CCCc1ccccc1)C(N)=O", "note": "[Compound 4, 4-phenylbutyry1-His-DPhe-Arg-Trp-Gly-Lys(hex-5-ynoyl)-NH2] ({Butanoyl(4-Ph)}-H[dF]RWGK(Butanoyl(4-ethynyl))-NH2)", "values": [{"measurement": "1R/4R selectivity (values determined)", "setting": "[1]", "value": 1000}, {"measurement": "1R/5R selectivity (values determined)", "setting": "[1]; ratio of MC5R Ki to MC1R Ki", "value": 200}]}, {"compound": "C#CCCCC(=O)NCCCC[C@H](N)C(=O)N[C@@H](Cc1ccc(O)cc1)C(=O)N[C@H](C(=O)N[C@@H](CCCC)C(=O)NCC(=O)N[C@@H](Cc1cnc[nH]1)C(=O)N[C@H](Cc1ccc2ccccc2c1)C(=O)N[C@@H](CCCNC(=N)N)C(=O)N[C@H](Cc1c[nH]c2ccccc12)C(=O)N[C@@H](CC(=O)O)C(=O)N[C@@H](CCCNC(=N)N)C(=O)N[C@@H](Cc1ccccc1)C(=O)NCC(N)=O)C(C)C", "note": "[Compound 6, H-Lys(hex-5-ynoyl)-Tyr-Val-Nle-Gly-His-DNal(2′)-Arg-DTrp-Asp-Arg-Phe-Gly-NH2]", "values": [{"measurement": "Ki", "setting": "[2]; read-out: Ki MC4R (values determined)", "value": 1.74, "unit": "nM"}, {"measurement": "Ki", "setting": "[3]; read-out: Ki MC5R (values determined)", "value": 1.48, "unit": "nM"}]}, {"compound": "C#CCCCC(=O)NCCCC[C@H](N)C(=O)N[C@@H](Cc1ccc(O)cc1)C(=O)N[C@H](C(=O)N[C@@H](CCCC)C(=O)NCC(=O)N[C@@H](Cc1c[nH]cn1)C(=O)N[C@H](Cc1ccc2ccccc2c1)C(=O)N[C@@H](CCCNC(=N)N)C(=O)N[C@H](Cc1ccccc1)C(=O)N[C@@H](CC(=O)O)C(=O)N[C@@H](CCCNC(=N)N)C(=O)N[C@@H](Cc1ccccc1)C(=O)NCC(N)=O)C(C)C", "note": "[Compound 8, H-Lys(hex-5-ynoyl)Tyr-Val-Nle-Gly-His-DNal(2′)-Arg-DPhe-Asp-Arg-Phe-Gly-NH2] (H-K(Butanoyl(4-ethynyl))YV[Nle]GH[d2Nal]R[dF]DRFG-NH2)", "values": [{"measurement": "1R/4R selectivity (values determined)", "setting": "[1]", "value": 1.05}]}, {"compound": "MC1R-Cy5: MC1R ligand conjugated to Cy5 maleimide dye ({Butanoyl(4-Ph)}-H[dF]RWGK([Mpa-Cy5 maleimide])-NH2)", "values": [{"measurement": "tumor cell internalization of probe", "setting": "[4]", "value": "fully internalized"}, {"measurement": "tumor cell internalization of probe", "setting": "[4]; listed as MC1R-635 probe", "value": "detected inside the cells"}, {"measurement": "time at which probe binds tumor cells in vivo", "setting": "[4]; after i.v. injection, 5 nmol/kg", "value": "≤ 5", "unit": "min"}]}]}
